Results on 17 molecules are retold here after patent US12404265B2, “Substituted pyridine derivatives as SARM1 inhibitors” (Nura Bio, Inc., priority 2020, dated 2025).

As usually defined, the IC50 is the midpoint of a concentration-inhibition curve.

For the assay, the target named is T1, human SARM1(50-724) (Homo sapiens, UniProt Q6SZW1).
T1 construct: 40 nM human SARM1(50-724)
T1 sequence (Q6SZW1 50-724): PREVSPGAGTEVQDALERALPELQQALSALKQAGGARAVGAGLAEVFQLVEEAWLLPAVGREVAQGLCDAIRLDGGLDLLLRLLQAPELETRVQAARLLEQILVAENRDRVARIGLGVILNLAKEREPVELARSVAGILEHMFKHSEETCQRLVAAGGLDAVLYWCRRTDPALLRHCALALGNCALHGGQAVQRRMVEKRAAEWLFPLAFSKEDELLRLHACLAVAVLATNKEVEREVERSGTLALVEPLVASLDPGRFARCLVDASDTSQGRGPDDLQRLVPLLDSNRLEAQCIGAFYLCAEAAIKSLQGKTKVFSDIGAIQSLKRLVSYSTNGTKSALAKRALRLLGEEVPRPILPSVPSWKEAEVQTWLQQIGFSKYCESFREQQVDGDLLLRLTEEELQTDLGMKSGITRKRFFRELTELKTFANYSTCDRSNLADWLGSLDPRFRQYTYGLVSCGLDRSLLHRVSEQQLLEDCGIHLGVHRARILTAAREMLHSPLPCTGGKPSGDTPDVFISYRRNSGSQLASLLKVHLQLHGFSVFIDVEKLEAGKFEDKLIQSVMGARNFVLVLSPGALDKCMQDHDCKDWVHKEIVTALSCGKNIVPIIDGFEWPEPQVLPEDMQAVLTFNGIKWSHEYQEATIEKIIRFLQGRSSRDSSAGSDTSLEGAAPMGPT
Kind of assay: SARM1 NADase biochemical assay (HPLC of NAD and NAM). Conditions: 40 nM human SARM1(50-724), 0.3 mM NMN, 20 μM NAD, 60 minutes room temperature; dose-response from 100 μM, 1:3 dilution. An outline of the steps:
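Human SARM1(50-724) at 40 nM with 0.3 mM NMN, 20 μM NAD, 1 mM TCEP in 25 mM HEPES pH 7.4, 10 mM KCl, 10 mM MgCl2, 1% DMSO; 60 min at room temperature, formic acid quench. NAD and NAM quantified by reverse-phase HPLC peak area; single point 50 μM or 1:3 series from 100 μM.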
As for `Cc1c(-c2ccncc2)n[nH]c1NC(=O)C1CC1c1ccc(Cl)cc1` (centres unmarked) [Example 135, 2-(4-Chlorophenyl)-N-(4-methyl-3-(pyridin-4-yl)-1H-pyrazol-5-yl)cyclopropane-1-carboxamide], the IC50 lay within 1000 to 10000 nM.

Consider `Cc1c(NC(=O)OCc2ccc(Cl)cc2)cnn1-c1ccncc1` [Example 136, 4-Chlorobenzyl (5-methyl-1-(pyridin-4-yl)-1H-pyrazol-4-yl)carbamate], for which the IC50 was less than 1000 nM.

For `Cc1c(NC(=S)CCc2ccc(Cl)cc2)cnn1-c1ccncc1` [Example 137, 3-(4-Chlorophenyl)-N-(5-methyl-1-(pyridin-4-yl)-1H-pyrazol-4-yl)propanethioamide], the IC50 is 1000 to 10000 nM.

Take `Cc1c(-c2ccncc2)n[nH]c1N1CCC(c2ccc(Cl)cc2)CC1=O` (centres unmarked) [Example 138, 4-(4-Chlorophenyl)-1-(4-methyl-3-(pyridin-4-yl)-1H-pyrazol-5-yl)piperidin-2-one]: the IC50 is less than 1000 nM.

`Cc1c(-c2ccncc2)n[nH]c1N(C)C(=O)CCc1ccc(Cl)cc1` [Example 139]: the IC50 is less than 1000 nM.

For `C#Cc1ccc(CCC(=O)Nc2[nH]nc(-c3ccncc3)c2C)cc1` [Example 140], the IC50 was less than 1000 nM.

For the molecule `Cc1c(-c2ccncc2)n[nH]c1NC(=O)NCc1ccc(C#N)cc1` [Example 141, 1-[(4-Cyanophenyl)methyl]-3-[4-methyl-3-(pyridin-4-yl)-1H-pyrazol-5-yl]urea], the IC50 is less than 1000 nM.

Take `Cc1c(-c2ccncc2)n[nH]c1NC(=O)NCc1ccc(F)cc1` [Example 142, 1-[(4-Fluorophenyl)methyl]-3-[4-methyl-3-(pyridin-4-yl)-1H-pyrazol-5-yl]urea]: the IC50 is less than 1000 nM.

`Cc1c(-c2ccncc2)n[nH]c1NC(=O)NCc1ccc(Cl)nc1` [Example 143, 1-[(6-Chloropyridin-3-yl)methyl]-3-[4-methyl-3-(pyridin-4-yl)-1H-pyrazol-5-yl]urea]: the IC50 is less than 1000 nM.

With `Cc1c(NC(=O)NCc2ccc(Cl)cc2)cnn1-c1ccncc1` [Example 144, 1-(4-Chlorobenzyl)-3-(5-methyl-1-(pyridin-4-yl)-1H-pyrazol-4-yl)urea], the IC50 was less than 1000 nM.

On to `O=C(NCc1cc(F)c(F)c(F)c1)Nc1[nH]nc(-c2ccncc2)c1Cl` [Example 145, 1-(4-Chloro-3-(pyridin-4-yl)-1H-pyrazol-5-yl)-3-(3,4,5-trifluorobenzyl)urea], for which the IC50 is less than 1000 nM.

Turning to `N#Cc1c(F)cc(CC2CCN(c3cc(-c4ccncc4)n[nH]3)C2=O)cc1F` (centres unmarked) [Example 146, 2,6-Difluoro-4-((2-oxo-1-(3-(pyridin-4-yl)-1H-pyrazol-5-yl)pyrrolidin-3-yl)methyl)benzonitrile], the IC50 is less than 1000 nM.

Regarding `O=C(CCc1ccc(Cl)cc1)Nc1[nH]nc(-c2ccncc2)c1Br` [Example 147, N-(4-Bromo-3-(pyridin-4-yl)-1H-pyrazol-5-yl)-3(4-chlorophenyl)propanamide], the IC50 is less than 1000 nM.

On to `Cc1c(-c2ccncc2)n[nH]c1NC(=O)N[C@H](C)c1ccc(Cl)cc1` [Example 148, (R)-1-(1-(4-Chlorophenyl)ethyl)-3-(4-methyl-3-(pyridin-4-yl)-1H-pyrazol-5-yl)urea], for which the IC50 was 1000 to 10000 nM.

Take `Cc1c(NC(=O)OCc2ccc(Cl)s2)cnn1-c1ccncc1` [Example 149, (5-Chlorothiophen-2-yl)methyl (5-methyl-1-(pyridin-4-yl)-1H-pyrazol-4-yl)carbamate]: the IC50 lay in the range of 1000 to 10000 nM.

Take `N[C@H](Cc1ccc(Cl)cc1)C(=O)Nc1cc(-c2ccncc2)n[nH]1` [Example 151, (R)-2-Amino-3-(4-chlorophenyl)-N-(3-(pyridin-4-yl)-1H-pyrazol-5-yl)propanamide]: the IC50 is less than 1000 nM.

Turning to `Cc1c(N2C(=O)[C@H](Cc3ccc(Cl)cc3)NC2(C)C)cnn1-c1ccncc1` [Example 152, (S)-5-(4-Chlorobenzyl)-2,2-dimethyl-3-(5-methyl-1-(pyridin-4-yl)-1H-pyrazol-4-yl)imidazolidin-4-one], the IC50 lay in the range of 1000 to 10000 nM.
